Laboratory results: patent publication US7300793B2, “Method for preventing the adhesion of particles” (Evotec Technologies GmbH, priority 2001, dated 2007)

Columns and labels:
U937-cells = assay: Cell adherence to polystyrene culture dishes in the presence of various substances, with trypan blue vitality check (U937); settings: for U937 Adherence: 30 minutes at 37° C., polystyrene 24-well plate
Method: (§1) 50 μl of the cell suspension described above were added.
(§2) The samples were incubated for 30 minutes at 37° C. The supernatant with non-adhered cells was removed and replaced by buffer. The adherence was qualitatively evaluated (refer to table 3). The cells in both supernatant and the wells were stained with trypanblue solution (0.2%, SIGMA Aldrich GmbH, Steinheim) in order to examine the vitality of the cells.

Jurkat-cells = assay: Cell adherence to polystyrene culture dishes in the presence of various substances, with trypan blue vitality check (Jurkat)
Method: as §1, §2

Substance	U937 Adherence (U937-cells; 0.1% in PBS)	U937 Adherence (U937-cells; 0.5% in PBS)	Jurkat Adherence (Jurkat-cells; 0.1% in PBS, 30 minutes at 37° C., polystyrene 24-well plate)	U937 Vitality (U937-cells) [%]	Jurkat Vitality (Jurkat-cells) [%]
Bovine serum albumin [BSA]	999	99	99	–	–
polyethylene glycol 5,000 [PEG 5,000]	–	–	–	100	100
polyvinyl alcohol [PVA 30,000–70,000]	–	–	–	98	97
polyvinyl pyrrolidone 15 [PVP 15]	–	–	–	100	100
polyvinyl pyrrolidone 25 [PVP 25]	–	–	–	100	100
